Structures can show the parent of a compound that is named as a salt.
| melting point | SMILES |
| --- | --- |
| 164 to 166 °C | COc1ccc(S(=O)(=O)N2CCc3cccc(NC(=O)Oc4ccccc4)c32)cc1 |
| 219 to 220 °C | COc1ccc(S(=O)(=O)N2CCc3cccc(NC(=O)c4ccncc4)c32)cc1 (as salt: HCl) [compound 26, N-[1-(4-Methoxy-benzenesulfonyl)-2,3-dihydro-1H-indol-7-yl]-isonicotin amide] |
| 205 to 206 °C | COc1ccc(S(=O)(=O)N2CCc3cccc(NC(=O)c4ccccc4)c32)cc1 [compound 20, N-[1-(4-Methoxy-benzenesulfonyl)-2,3-dihydro-1H-indol-7-yl]-benzamide] |
| 184 to 185 °C | COc1ccc(S(=O)(=O)N2CCc3cccc(NC(=O)c4ccc(F)cc4)c32)cc1 [compound 21, 4-Fluoro-N-[1-(4-methoxy-benzenesulfonyl)-2,3-dihydro-1H-indol-7-yl]-benzamide] |
| 151 to 152 °C | COc1ccc(S(=O)(=O)N2CCc3cccc(NC(=O)c4ccc([N+](=O)[O-])cc4)c32)cc1 [compound 22, N-[1-(4-Methoxy-benzenesulfonyl)-2,3-dihydro-1H-indol-7-yl]-4-nitro-benzamide] |
| 179 to 180 °C | COc1ccc(S(=O)(=O)N2CCc3cccc(NC(=O)c4ccc(C#N)cc4)c32)cc1 [compound 23, 4-Cyano-N-[1-(4-methoxy-benzenesulfonyl)-2,3-dihydro-1H-indol-7-yl]-benzamide] |
| 163 to 164 °C | COc1ccc(S(=O)(=O)N2CCc3cccc(NC(=O)c4ccco4)c32)cc1 [compound 27, Furan-2-carboxylic acid [1-(4-methoxy-benzenesulfonyl)-2,3-dihydro-1H-indol-7-yl]-amide] |
| 188 to 189 °C | COc1ccc(S(=O)(=O)N2CCc3cccc(NC(=O)c4cccs4)c32)cc1 [compound 28, Thiophene-2-carboxylic acid [1-(4-methoxy-benzenesulfonyl)-2,3-dihydro-1H-indol-7-yl]-amide] |
| 143 to 145 °C | COc1ccc(S(=O)(=O)N2CCc3cccc(NS(=O)(=O)c4ccccc4)c32)cc1 [compound 29, N-[1-(4-Methoxy-benzenesulfonyl)-2,3-dihydro-1H-indol-7-yl]-benzenesulfonamide] |
| 104 to 105 °C | COc1ccc(S(=O)(=O)N2CCc3cccc(NS(=O)(=O)c4ccc(F)cc4)c32)cc1 [compound 31, 4-Fluoro-N-[1-(4-methoxy-benzenesulfonyl)-2,3-dihydro-1H-indol-7-yl]-benzenesulfonamide] |
| 199 to 201 °C | COc1ccc(S(=O)(=O)N2CCc3cccc(NC(=O)N(C)c4ccccc4)c32)cc1 [compound 33, 3-[1-(4-Methoxy-benzenesulfonyl)-2,3-dihydro-1H-indol-7-yl]-1-methyl-1-phenyl-urea] |
| 162 to 163 °C | COc1ccc(S(=O)(=O)N2CCc3cccc(NCc4ccccc4)c32)cc1 [compound 34, Benzyl-[1-(4-methoxy-benzenesulfonyl)-2,3-dihydro-1H-indol-7-yl]-amine] |
| 154 to 155 °C | COc1ccc(S(=O)(=O)N2CCc3cccc(NC(C)=O)c32)cc1 [compound 35, N-[1-(4-Methoxy-benzenesulfonyl)-2,3-dihydro-1H-indol-7-yl]acetamide] |
| 191 to 192 °C | COc1ccc(S(=O)(=O)N2CCc3cc(Br)cc(NC(=O)c4ccncc4)c32)cc1 [compound 37, N-[5-Bromo-1-(4-methoxy-benzenesulfonyl)-2,3-dihydro-1H-indol-7-yl]-isonicotinamide] |
| 170 to 171 °C | COc1ccc(S(=O)(=O)N2CCc3cc(Br)cc(NC(=O)c4ccco4)c32)cc1 [compound 38, Furan-2-carboxylic acid [5-bromo-1-(4-methoxy-benzenesulfonyl) -2,3-dihydro-1H-indol-7-yl]-amide] |
